pEC50: −log10 of the molar value. Calls of active or inactive are those of the source. The rule behind the calls is not given here.
How the values were obtained:
[1] = Cytotoxicity against MDCK cells incubated for 48 hrs by MTT assay; assay type: toxicity, cell-based, Canis lupus familiaris; conditions: dog
[2] = in vitro; conditions: dog, MDCK cells
[3] = Metabolic stability in mouse plasma assessed as compound remaining measured after 30 mins by LC-MS/MS analysis; assay type: ADME, cell-free; conditions: read-out: Stability
[4] = Metabolic stability in mouse plasma assessed as compound remaining measured after 60 mins by LC-MS/MS analysis; assay type: ADME, cell-free; conditions: read-out: Stability
[5] = Metabolic stability in mouse plasma assessed as compound remaining measured after 90 mins by LC-MS/MS analysis; assay type: ADME, cell-free; conditions: read-out: Stability
[6] = Metabolic stability in mouse plasma assessed as compound remaining measured after 120 mins by LC-MS/MS analysis; assay type: ADME, cell-free; conditions: read-out: Stability
[7] = tested on: Influenza A virus; assay: Antiviral activity against influenza A virus H5N1(A/Duck/Guangdong/212/2004) infected in MDCK cells assessed as inhibition of cytopathic effect incubated for 48 hrs by MTT assay; assay type: functional, organism-based
[8] = tested on: Influenza A virus; assay: Antiviral activity against influenza A virus H3N2(JX/312) infected in MDCK cells assessed as inhibition of cytopathic effect incubated for 48 hrs by MTT assay; assay type: functional, organism-based
[9] = tested on: Influenza A virus; assay: Antiviral activity against influenza A virus Flu (B/Lee/1940) infected in MDCK cells assessed as inhibition of cytopathic effect incubated for 48 hrs by MTT assay; assay type: functional, organism-based
[10] = tested on: Influenza A virus; assay: Antiviral activity against Influenza A A/WSN/33 (H1N1) infected in BALB/c mouse at 10 mg/kg/day, ip administered twice daily for 5 days starting from 1 hrs post infection and measured daily for 14 days; assay type: functional, organism-based; conditions: time 5.0 day
[11] = molecular target: Polymerase acidic protein (Influenza A virus (A/Puerto Rico/8/1934(H1N1))) (UniProt P03433); assay: Inhibition of Influenza A virus N-terminal domain of PA endonuclease using 6FAM-TGGCAATATCAGCTCCACA-MGBNFQ as fluorescent substrate by FRET analysis
[12] = tested on: Influenza A virus; assay: Antiviral activity against influenza A virus A/WSN/33 (H1N1) infected in MDCK cells at 20 uM pre-infected with virus for 1 hr followed by compound addition and measured after 24 hrs post infection; assay type: functional, organism-based
[13] = Metabolic stability in mouse liver microsomes assessed as half life at 10 uM incubated for 5 mins in presence of NADPH by LC-MS/MS analysis; assay type: ADME, Microsome
[14] = Metabolic stability in mouse liver microsomes assessed as intrinsic clearance at 10 uM incubated for 5 mins in presence of NADPH by LC-MS/MS analysis; assay type: ADME, Microsome; conditions: read-out: CLH

Row | SMILES | CC50 at 48 h [1] [µM] | selectivity ratio [2] | also measured
1 | O=C(O)[C@@H]1Cc2cc(O)c(O)cc2[C@H](Cc2ccc(O)c(O)c2)N1C(=O)c1ccccc1Cl | 103 | 5.4 | –
2 | COC(=O)[C@@H]1Cc2cc(O)c(O)cc2[C@H](Cc2ccc(O)c(O)c2)N1C(=O)c1cccc(Cl)c1 | 61.1 | 25.3 | –
3 | CN1CCc2cc(O)c(O)cc2C1Cc1ccc(O)c(O)c1 (racemic) | > 200 | > 5.4 | –
4 | CC(C)[N+](C)(CCOC(=O)C1c2ccccc2Oc2ccccc21)C(C)C [PROPANTHELINE BROMIDE] | – | – | remaining at 0.5 h [3]: 45.5%; remaining at 1 h [4]: 18.2%; remaining at 1.5 h [5]: 10.3%; remaining at 2 h [6]: 2%
5 | CCCCCCC(=O)N1[C@H](C(=O)OC)Cc2cc(O)c(O)cc2[C@@H]1Cc1ccc(O)c(O)c1 | 84.3 | 5.1 | –
6 | COC(=O)[C@@H]1Cc2cc(O)c(O)cc2[C@H](Cc2ccc(O)c(O)c2)N1C(=O)c1ccccc1F | 82.3 | 29.7 | –
7 | COC(=O)[C@@H]1Cc2cc(O)c(O)cc2[C@H](Cc2ccc(O)c(O)c2)N1C(=O)c1cccc(Br)c1 | > 101 | > 26.4 | –
8 | COC(=O)[C@@H]1Cc2cc(O)c(O)cc2[C@H](Cc2ccc(O)c(O)c2)N1C(=O)c1ccc(Cl)cc1Cl | > 101 | > 21.2 | –
9 | COC(=O)[C@@H]1Cc2cc(O)c(O)cc2[C@H](Cc2ccc(O)c(O)c2)N1C(=O)c1ccccc1Cl | 89.8 | 49.3 | pEC50 [7]: 5.63; pEC50 [8]: 6.04; pEC50 [9]: 6.07
10 | O=C(Nc1ccccc1)[C@@H]1Cc2cc(O)c(O)cc2[C@H](Cc2ccc(O)c(O)c2)N1C(=O)c1ccccc1Cl | 169 | 10.8 | –
11 | COC(=O)[C@@H]1Cc2cc(O)c(O)cc2[C@H](Cc2ccc(O)c(O)c2)N1C(=O)c1ccc(Cl)cc1 | 87.4 | 34.5 | –
12 | COC(=O)[C@@H]1Cc2cc(O)c(O)cc2[C@H](Cc2ccc(O)c(O)c2)N1C(=O)c1ccccc1[N+](=O)[O-] | > 101 | > 9.2 | –
13 | O=C(Nc1ccncc1)[C@@H]1Cc2cc(O)c(O)cc2[C@H](Cc2ccc(O)c(O)c2)N1C(=O)c1ccccc1Cl | 203 | 101 | pEC50 [7]: 5.55; pEC50 [8]: 6.02; pEC50 [9]: 6.09
14 | COC(=O)[C@@H]1Cc2cc(O)c(O)cc2[C@H](Cc2ccc(O)c(O)c2)N1C(=O)c1ccc(Br)cc1 | > 101 | > 25.5 | –
15 | CN(C)C(=O)[C@@H]1Cc2cc(O)c(O)cc2[C@H](Cc2ccc(O)c(O)c2)N1C(=O)c1ccccc1Cl | 137 | 10.8 | –
16 | COC(=O)[C@@H]1Cc2cc(O)c(O)cc2[C@H](Cc2ccc(O)c(O)c2)N1C(=O)c1ccc(F)cc1 | > 101 | > 33.6 | –
17 | CCOC(=O)[C@@H]1Cc2cc(O)c(O)cc2[C@H](Cc2ccc(O)c(O)c2)N1C(=O)c1ccccc1Cl | 98.5 | 30.7 | –
18 | COC(=O)[C@@H]1Cc2cc(O)c(O)cc2[C@H](Cc2ccc(O)c(O)c2)N1C(=O)C1CCCCC1 | 64.5 | 3.4 | –

Row | SMILES | CC50 at 48 h [1] [µM] | selectivity ratio [2] | also measured
19 | C=CC(=O)N1[C@H](C(=O)OC)Cc2cc(O)c(O)cc2[C@@H]1Cc1ccc(O)c(O)c1 | 47.5 | 8.9 | –
20 | COC(=O)[C@@H]1Cc2cc(O)c(O)cc2[C@H](Cc2ccc(O)c(O)c2)N1C(=O)c1cccc([N+](=O)[O-])c1 | > 101 | > 5.3 | –
21 | CCC(CC)[C@H](NC(C)=O)[C@@H]1[C@H](O)[C@@H](C(=O)O)C[C@H]1NC(=N)N [PERAMIVIR ANHYDROUS] | > 101 | > 19.2 | pEC50 [7]: 5.97; pEC50 [8]: 3.67; pEC50 [9]: 5.78; Activity [10]: Active
22 | COC(=O)COC(=O)[C@@H]1Cc2cc(O)c(O)cc2[C@H](Cc2ccc(O)c(O)c2)N1C(=O)c1ccccc1Cl | 163 | 67.1 | –
23 | COC(=O)[C@@H]1Cc2cc(O)c(O)cc2[C@H](Cc2ccc(O)c(O)c2)N1C(=O)c1cccc(F)c1 | 73.7 | 25.8 | –
24 | O=C(Oc1ccccc1)[C@@H]1Cc2cc(O)c(O)cc2[C@H](Cc2ccc(O)c(O)c2)N1C(=O)c1ccccc1Cl | 70.3 | 52.1 | –
25 | COC(=O)[C@@H]1Cc2cc(O)c(O)cc2[C@H](Cc2ccc(O)c(O)c2)N1C(=O)c1cccc(C(F)(F)F)c1 | > 101 | > 11.8 | –
26 | O=C(O[C@@H]1Cc2c(O)cc(O)cc2O[C@@H]1c1cc(O)c(O)c(O)c1)c1cc(O)c(O)c(O)c1 [EPIGALOCATECHIN GALLATE] | > 100 | > 3.3 | –
27 | COC(=O)[C@@H]1Cc2cc(O)c(O)cc2[C@H](Cc2ccc(O)c(O)c2)N1C(=O)c1ccccc1 | 157 | 29.7 | inhibition [11]: Dose-Dependent Effect
28 | O=C1c2c(O)c(=O)ccn2N([C@@H]2c3ccccc3SCc3c2ccc(F)c3F)[C@@H]2COCCN12 [BALOXAVIR] | > 100 | > 11700 | –
29 | COC(=O)[C@@H]1Cc2cc(O)c(O)cc2[C@H](Cc2ccc(O)c(O)c2)N1C(=O)c1ccc2ccccc2c1 | 45.2 | 15.6 | –
30 | COC(=O)[C@@H]1Cc2cc(O)c(O)cc2[C@H](Cc2ccc(O)c(O)c2)N1C(=O)c1ccccc1Br | > 101 | > 29.5 | –
31 | COC(=O)[C@@H]1Cc2cc(O)c(O)cc2[C@H](Cc2ccc(O)c(O)c2)N1C(=O)c1c(Cl)cccc1Cl | 81.6 | 15.5 | –
32 | COC(=O)CNC(=O)[C@@H]1Cc2cc(O)c(O)cc2[C@H](Cc2ccc(O)c(O)c2)N1C(=O)c1ccccc1Cl | 143 | 36.8 | –
33 | CC(=O)N[C@H]1[C@H]([C@H](O)[C@H](O)CO)OC(C(=O)O)=C[C@@H]1NC(=N)N | – | – | Activity [12]: inactive
34 | O=C(O)Cc1ccccc1Nc1c(Cl)cccc1Cl [DICLOFENAC] | – | – | half-life at 10 µM [13]: 12.1 min; microsomal CLint at 10 µM [14]: 112 µL/min/mg
35 | COC(=O)[C@@H]1Cc2cc(O)c(O)cc2[C@H](Cc2ccc(O)c(O)c2)N1C(=O)c1ccccc1C(F)(F)F | > 101 | > 11.1 | –
36 | COC(=O)[C@@H]1Cc2cc(O)c(O)cc2[C@H](Cc2ccc(O)c(O)c2)N1C(=O)c1ccc(C(F)(F)F)cc1 | > 101 | > 10.8 | –

— ChEMBL document CHEMBL5316264, “Identification of N- and C-3-Modified Laudanosoline Derivatives as Novel Influenza PAN Endonuclease Inhibitors” (J Med Chem, 2023)
